In test [1] the target is T1, p52 (Homo sapiens, UniProt Q00653).
T1 sequence (Q00653 1-454 limits assumed): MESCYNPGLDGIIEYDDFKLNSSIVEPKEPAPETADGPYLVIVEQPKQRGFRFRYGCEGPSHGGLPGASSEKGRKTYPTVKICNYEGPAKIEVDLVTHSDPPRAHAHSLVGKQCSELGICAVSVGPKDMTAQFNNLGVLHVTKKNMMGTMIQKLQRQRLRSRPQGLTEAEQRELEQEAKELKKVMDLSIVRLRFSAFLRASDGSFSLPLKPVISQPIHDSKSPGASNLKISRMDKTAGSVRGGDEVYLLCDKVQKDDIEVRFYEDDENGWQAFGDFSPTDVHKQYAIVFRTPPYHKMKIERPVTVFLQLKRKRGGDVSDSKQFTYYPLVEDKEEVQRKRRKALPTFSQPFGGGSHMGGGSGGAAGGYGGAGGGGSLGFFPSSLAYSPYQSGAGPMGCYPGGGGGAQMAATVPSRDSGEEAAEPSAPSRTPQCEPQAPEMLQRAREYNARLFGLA
As to the kind of experiment: DSE-FRET p52–DNA binding inhibition. Type of test: biochemical. Also on record: p52 Retest % Inhibition Run2 / p52 Retest % Inhibition Avg. / Kinetic assay p52 Inhibition % ΔRFU(60 min-0 min) / p52 HTS % Inhibition / p52 Retest % Inhibition Run1: dose or concentration left out as unconfirmed. Particulars: for p52 Retest % Inhibition Avg.: Retest average of Run1 and Run2.

Test [2] concerns the target RelA (Homo sapiens, UniProt Q04206). Put plainly: DSE-FRET RelA–DNA binding inhibition. Type of test: biochemical. Also on record: Kinetic assay RelA Inhibition % ΔRFU(60 min-0 min) / RelA HTS % Inhibition / RelA Retest % Inhibition Run1 / RelA Retest % Inhibition Run2 / RelA Retest % Inhibition Avg. / Kinetic assay RelA % Inhibition ΔRFU(60 min-0 min): dose or concentration left out as unconfirmed.
Description: Plate-based (384 scale) DNA-binding experiments were carried out with 0.1 µL of 2 mM or 1 mg/mL compound, 2 µL of 80 nM NF-D1 (consisting of NF-01F and NF-14D), 1 µL of 20 ng/µL poly dI-dC, and 6.9 µL of 3.2 pmol protein in binding buffer (10 mM 4-(2-hydroxyethyl)-1-piperazineethanesulfonic acid (HEPES)–NaOH pH 7.9, 50 mM KCl, 0.1 mM ethylenediaminetetraacetic acid (EDTA), 2.5 mM dithiothreitol (DTT), 10% glycerol, and 0.05% Nonidet P40). The plates were incubated for 30 min at room temperature, after which 10 µL of NF-D2 (consisting of NF-02 and NF-13) was added. The plates were centrifuged at 1000 rpm for 30 s, followed by shaking for 30 s using a plate shaker (Biotec). Fluorescence was measured at 528 nm, after excitation at 485 nm, using a multiplate reader (Biotec) over a period of 60 min.

Where [3] appears, read: kinetic assay, ΔRFU 60 min-0 min.
Where [4] appears, read: HTS, 5 µg/mL, NPDepo hits, read-out: RelA HTS % Inhibition @ 5 µg/mL.
Where [5] appears, read: Retest Run1, 5 µg/mL, read-out: RelA Retest % Inhibition @ 5 µg/mL Run1.
Setting [6] is: Retest Run2, 5 µg/mL, read-out: RelA Retest % Inhibition @ 5 µg/mL Run2.
The mark [7] stands for this setting: Retest average of Run1 and Run2, 5 µg/mL, read-out: RelA Retest % Inhibition @ 5 µg/mL Avg.
[8] abbreviates: kinetic assay, 5 µg/mL, ΔRFU 60 min-0 min, read-out: Kinetic assay @ 5 µg/mL RelA Inhibition % ΔRFU(60 min-0 min).

Values joined by “and” are separate entries in the source; they are usually repeats but may differ in a detail not shown here. Identical values can stand only once. Counter-ions that a name gives are not always drawn. Like-named read-outs stand apart in the source and are kept apart here.

Sequence of RelA (Q04206 19-306 limits assumed): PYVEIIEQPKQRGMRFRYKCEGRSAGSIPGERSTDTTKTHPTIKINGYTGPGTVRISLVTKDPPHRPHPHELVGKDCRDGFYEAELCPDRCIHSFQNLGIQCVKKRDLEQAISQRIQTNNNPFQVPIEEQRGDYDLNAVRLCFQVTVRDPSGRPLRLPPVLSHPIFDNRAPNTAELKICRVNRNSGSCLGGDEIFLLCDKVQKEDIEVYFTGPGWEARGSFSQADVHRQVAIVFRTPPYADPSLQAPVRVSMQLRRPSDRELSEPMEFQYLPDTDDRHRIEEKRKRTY

In the case of `O=C(O)CSCC(=O)N1CCn2c3c(c4cc(C5CCCCC5)ccc42)CCCC31` (centres unmarked), the “p52 HTS % Inhibition” value in test [1] (HTS, NPDepo hits) is 19.2%. Also, in test [1], the “p52 Retest % Inhibition Run1” value is recorded as 18.8%, the “p52 Retest % Inhibition Run2” value was 22.6% and the “p52 Retest % Inhibition Avg.” value came to 20.7%. The “Kinetic assay p52 Inhibition % ΔRFU(60 min-0 min)” value in test [1] (setting [3]) is reported as -3.52%. Moreover, the “RelA HTS % Inhibition” value in test [2] (HTS, NPDepo hits) turned out to be 35.7%. For the same compound, the “RelA Retest % Inhibition Run1” value in test [2] (Retest Run1) is reported as 22.2%. The “RelA Retest % Inhibition Run2” value in test [2] (Retest Run2) is 23.7%. For the same compound, in test [2] (Retest average of Run1 and Run2), the “RelA Retest % Inhibition Avg.” value amounted to 22.9%. Moreover, in test [2] (setting [3]), the “Kinetic assay RelA Inhibition % ΔRFU(60 min-0 min)” value is -2.34%.

Regarding `COc1cccc2c1C(=O)c1c(O)c3c(c(O)c1C2=O)C[C@@](O)(C(C)=O)C[C@@H]3O[C@H]1C[C@H](N)[C@H](O)[C@H](C)O1` [Daunorubicin(Daunomycin)], in test [1] (HTS, NPDepo hits), the “p52 HTS % Inhibition” value amounted to 78.5%. Moreover, in test [1], the “p52 Retest % Inhibition Run1” value is on record as 79.2%, the “p52 Retest % Inhibition Run2” value is given as 84.3% and the “p52 Retest % Inhibition Avg.” value worked out at 81.7%. The “Kinetic assay p52 Inhibition % ΔRFU(60 min-0 min)” value in test [1] (setting [3]) was -7%.

For the compound `COc1cccc2c1C(=O)c1c(O)c3c(c(O)c1C2=O)C[C@@](O)(C(C)=O)C[C@@H]3O[C@H]1C[C@H](N)[C@H](O)[C@H](C)O1` [Daunorubicin hydrochloride], the “Kinetic assay p52 % Inhibition ΔRFU(60 min-0 min)” value in test [1] (kinetic assay) is -16% and -18%.

For the compound `Cc1ccc(C(=O)Nc2ccc(S(=O)(=O)[O-])c3cc(S(=O)(=O)[O-])cc(S(=O)(=O)[O-])c23)cc1NC(=O)c1cccc(NC(=O)Nc2cccc(C(=O)Nc3cc(C(=O)Nc4ccc(S(=O)(=O)[O-])c5cc(S(=O)(=O)[O-])cc(S(=O)(=O)[O-])c45)ccc3C)c2)c1.[Na+].[Na+].[Na+].[Na+].[Na+].[Na+]` [Suramin hexasodium salt], the “Kinetic assay @ 50 µM p52 Inhibition % ΔRFU(120 min-0 min)” value in test [1] (96 well plate, 50 µM, 120 min-0 min) was 73%. For the same compound, the “p52 HTS % Inhibition” value in test [1] (HTS, known drugs) was 4.7%. For the same compound, in test [1], the “p52 Retest % Inhibition Run1” value is recorded as 4.9%, the “p52 Retest % Inhibition Run2” value is on record as 5.3% and the “p52 Retest % Inhibition Avg.” value is given as 5.1%. Also, the “Kinetic assay p52 % Inhibition ΔRFU(60 min-0 min)” value in test [1] (kinetic assay) was found to be 7%.

Turning to `COc1cccc2c1C(=O)c1c(O)c3c(c(O)c1C2=O)C[C@@](O)(C(C)=O)C[C@@H]3O[C@H]1C[C@H](N)[C@H](O)[C@H](C)O1` [Daunomycin], the inhibition at 5 µg/mL in test [1] (HTS, 5 µg/mL, NPDepo hits, read-out: p52 HTS % Inhibition @ 5 µg/mL) is 77.8%; in test [1] (Retest Run1, 5 µg/mL, read-out: p52 Retest % Inhibition @ 5 µg/mL Run1) it was 92.7%; in test [1] (Retest Run2, 5 µg/mL, read-out: p52 Retest % Inhibition @ 5 µg/mL Run2) it was 99%; in test [1] (Retest average of Run1 and Run2, 5 µg/mL, read-out: p52 Retest % Inhibition @ 5 µg/mL Avg.), 95.9%; in test [1] (kinetic assay, 5 µg/mL, ΔRFU 60 min-0 min, read-out: Kinetic assay @ 5 µg/mL p52 Inhibition % ΔRFU(60 min-0 min)) it was -4.66%.

As to `COc1cc(/C=C/C(=O)CC(=O)/C=C/c2ccc(O)c(OC)c2)ccc1O` [Curcumin], the inhibition at 5 µg/mL was 116% in test [2] (setting [4]); 135% in test [2] (setting [5]); 149% in test [2] (setting [6]); 142% in test [2] (setting [7]); -84% in test [2] (setting [8]).

Turning to `COc1cccc2c1C(=O)c1c(O)c3c(c(O)c1C2=O)C[C@@](O)(C(C)=O)C[C@@H]3O[C@H]1C[C@H](N)[C@H](O)[C@H](C)O1` [DAUNORUBICIN], the “Kinetic assay p52 % Inhibition ΔRFU(60 min-0 min)” value in test [1] (kinetic assay) was -16%.

As to `COc1cccc2c1C(=O)c1c(O)c3c(c(O)c1C2=O)C[C@@](O)(C(=O)CO)C[C@@H]3O[C@H]1C[C@H](N)[C@H](O)[C@H](C)O1` [Doxorubicin], the inhibition at 5 µg/mL was 70.5% in test [2] (setting [4]); 69.2% in test [2] (setting [5]); 78.3% in test [2] (setting [6]); 73.8% in test [2] (setting [7]); -12% in test [2] (setting [8]).

The values are drawn from article PMC7734590, “Identification of a Selective RelA Inhibitor Based on DSE-FRET Screening Methods” (International Journal of Molecular Sciences, 2020).
